Measured values as given in patent publication US20250145633A1, “SUBSTITUTED FURANOPYRIMIDINE COMPOUNDS AS PDE1 INHIBITORS” (Dart NeuroScience, LLC, priority 2017, published 2025).
Counter-ions that a name gives are not always drawn.

Molecular target: human PDE1B enzyme (Homo sapiens (Human), UniProt Q01064)
Assay: IMAP TR-FRET PDE1B enzymatic assay
Type: biochemical
Conditions: negative log of half-maximal molar inhibitory concentration, 200 nM FAM-cAMP, values given as bins; for IC50: read-out: PDE1b (pIC50) (converted)
Protocol: PDE1B inhibition was determined by an IMAP TR-FRET assay. The IMAP TR-FRET PDE assay was optimized for concentration of enzyme, Calmodulin, cAMP or cGMP substrate, DMSO tolerance, and incubation time.
Into each well of a solid white 1536 well plate (Corning) was dispensed 250 pg full-length recombinant NH-terminal GST tagged human PDE1B enzyme (BPS Bioscience Cat #60011, San Diego, CA) in 2.5 μL IMAP BSA reaction buffer (Molecular Devices, Sunnyvale, CA) containing 10 U/ml Calmodulin and 2.5 mM CaCl2) (Sigma Aldrich.) After a brief centrifugation, 30 nL of compound was added by transfer from 1 mM stock in DMSO using a Kalypsys 1536 Pintool. Plates were incubated for 5 minutes at room temperature before dispensing 1.5 μL of 533 nM 5-carboxy fluorescein (FAM)-labeled cAMP (Molecular Devices, Sunnyvale, CA) for a final concentration of 200 nM. After a brief centrifugation, the plates were incubated for 30 minutes at room temperature. The assay was terminated by adding 5 μL IMAP binding reagent/Tb complex (Molecular Devices, Sunnyvale, CA) to each well.
Plates were incubated for 1 hour at room temperature and were read on a Viewlux multimode plate reader (Perkin Elmer). The instrument was set to excite using the DUG11 filter and measure using 490/10 nm and 520/10 nm filters. Ratios of acceptor and donor were then calculated.
For IC50 calculations, the values of % efficacy versus a series of compound concentrations were then plotted using non-linear regression analysis of sigmoidal dose-response curves generated with the equation Y=[B+(T−B)]/[1+10((Log EC50−X)×Hill Slope)], where Y=percent activity, B=minimum percent efficacy, T=maximum percent efficacy, X=logarithm of compound and Hill Slope=slope factor or Hill coefficient. The IC50 value was determined by the concentration causing a half-maximal percent efficacy.

Compound	IC50 [nM]	PDE1b (pIC50)
Cc1oc2ncnc(NC3(C)CC3)c2c1C(=O)N1CC[C@@H]2CCCC[C@H]2C1 (stereo in doubt) [Example 271, 5-[(4aS,8aR)-Decahydroisoquinoline-2-carbonyl]-6-methyl-N-(1-methylcyclopropyl)furo[2,3-d]pyrimidin-4-amine]	10 to 100	
COc1ccc(C(C)NC(=O)c2c(C)oc3ncnc(NC4(C)CC4)c23)cc1 (stereo in doubt) [Example 480, N-[(1S)-1-(4-Methoxyphenyl)ethyl]-6-methyl-4-[(1-methylcyclopropyl)amino]furo[2,3-d]pyrimidine-5-carboxamide]	10 to 100	
COc1ccccc1C(C)NC(=O)c1c(C)oc2ncnc(NC3(C)CC3)c12 (stereo in doubt) [Example 482, N-[(1S)-1-(2-Methoxyphenyl)ethyl]-6-methyl-4-[(1-methylcyclopropyl)amino]furo[2,3-d]pyrimidine-5-carboxamide]	10 to 100	
Cc1oc2ncnc(NC3(C)CC3)c2c1C(=O)NC(C)c1ccc(F)cc1 (stereo in doubt) [Example 484, N-[(1R)-1-(4-Fluorophenyl)ethyl]-6-methyl-4-[(1-methylcyclopropyl)amino]furo[2,3-d]pyrimidine-5-carboxamide]	10 to 100	
Cc1oc2ncnc(NC3(C)CC3)c2c1C(=O)NC(C)c1ncc(F)cn1 (stereo in doubt) [Example 518, N-[(1S)-1-(5-Fluoropyrimidin-2-yl)ethyl]-6-methyl-4-[(1-methylcyclopropyl)amino]furo[2,3-d]pyrimidine-5-carboxamide]	100 to 1000	
COc1ccc(C(C)NC(=O)c2c(C)oc3ncnc(NC4(C)CC4)c23)cc1OC (stereo in doubt) [Example 556, N-[(1R)-1-(3,4-Dimethoxyphenyl)ethyl]-6-methyl-4-[(1-methylcyclopropyl)amino]furo[2,3-d]pyrimidine-5-carboxamide]		>8
COc1ccc(C(C)NC(=O)c2c(C)oc3ncnc(NC4(C)CC4)c23)cc1 (stereo in doubt) [Example 560, N-[(1R)-1-(4-Methoxyphenyl)ethyl]-6-methyl-4-[(1-methylcyclopropyl)amino]furo[2,3-d]pyrimidine-5-carboxamide]		>8
Cc1oc2ncnc(NC3(C)CC3)c2c1C(=O)NC(C)c1ncc(F)cn1 (stereo in doubt) [Example 615, N-[(1R)-1-(5-Fluoropyrimidin-2-yl)ethyl]-6-methyl-4-[(1-methylcyclopropyl)amino]furo[2,3-d]pyrimidine-5-carboxamide]	10 to 100	
Cc1oc2ncnc(NC3(C)CC3)c2c1C(=O)N1CCN(c2ccccc2)CC1 [Example 1, (6-Methyl-4-((1-methylcyclopropyl)amino)furo[2,3-d]pyrimidin-5-yl)(4-phenylpiperazin-1-yl)methanone]		>8
Cc1oc2ncnc(NC3(C)CC3)c2c1C(=O)N1CCc2nc(C3CC3)ncc2C1 [Example 2, (2-Cyclopropyl-7,8-dihydropyrido[4,3-d]pyrimidin-6(5H)-yl)(6-methyl-4-((1-methylcyclopropyl)amino)furo[2,3-d]pyrimidin-5-yl)methanone]	10 to 100	
Cc1oc2ncnc(NC3(C)CC3)c2c1C(=O)NC1(CF)CC1 [Example 3, N-(1-(fluoromethyl)cyclopropyl)-6-methyl-4-((1-methylcyclopropyl)amino)furo[2,3-d]pyrimidine-5-carboxamide]	10 to 100	
COc1ncnc2c1CCN(C(=O)c1c(C)oc3ncnc(NC4(C)CC4)c13)C2 [Example 4, (4-Methoxy-5,8-dihydropyrido[3,4-d]pyrimidin-7(6H)-yl)(6-methyl-4-((1-methylcyclopropyl)amino)furo[2,3-d]pyrimidin-5-yl)methanone]	10 to 100	
Cc1oc2ncnc(NC3(C)CC3)c2c1C(=O)N1CCc2c(F)ncnc2C1 [Example 5, (4-Fluoro-5,8-dihydropyrido[3,4-d]pyrimidin-7(6H)-yl)(6-methyl-4-((1-methylcyclopropyl)amino)furo[2,3-d]pyrimidin-5-yl)methanone]	10 to 100	
Cc1oc2ncnc(NC3(C)CC3)c2c1C(=O)N1CCc2c(Cl)ncnc2C1 [Example 6, 5-{4-chloro-5H,6H,7H,8H-pyrido[3,4-d]pyrimidine-7-carbonyl}-6-methyl-N-(1-methylcyclopropyl)furo[2,3-d]pyrimidin-4-amine]	10 to 100	
Cc1oc2ncnc(NC3(C)CC3)c2c1C(=O)N1CCc2c(ncnc2NCCF)C1 [Example 7, 5-{4-[(2-Fluoroethyl)amino]-5H,6H,7H,8H-pyrido[3,4-d]pyrimidine-7-carbonyl}-6-methyl-N-(1-methylcyclopropyl)furo[2,3-d]pyrimidin-4-amine trifluoroacetate]	10 to 100	
Cc1oc2ncnc(NC3(C)CC3)c2c1C(=O)NCc1cnc(Cl)cn1 [Example 8, N-((5-Chloropyrazin-2-yl)methyl)-6-methyl-4-((1-methylcyclopropyl)amino)furo[2,3-d]pyrimidine-5-carboxamide]	10 to 100	
Cc1oc2ncnc(NC3(C)CC3)c2c1C(=O)NCc1cnc(F)cn1 [Example 9, N-((5-Fluoropyrazin-2-yl)methyl)-6-methyl-4-((1-methylcyclopropyl)amino)furo[2,3-d]pyrimidine-5-carboxamide]	10 to 100	
Cc1oc2ncnc(NC3(C)CC3)c2c1C(=O)NCc1ccc(O)cn1 [Example 10, N-[(5-Hydroxypyridin-2-yl)methyl]-6-methyl-4-[(1-methylcyclopropyl)amino]furo[2,3-d]pyrimidin-5-carboxamide]	10 to 100	
Cc1oc2ncnc(NC3(C)CC3)c2c1C(=O)NCc1ccc(OCF)cn1 [Example 11, N-((5-(Fluoromethoxy)pyridin-2-yl)methyl)-6-methyl-4-((1-methylcyclopropyl)amino)furo[2,3-d]pyrimidin-5-carboxamide]		>8
Cc1oc2ncnc(NC3(C)CC3)c2c1C(=O)N1CC=C(c2cnc(C#N)c(F)c2)CC1 [Example 12, 3-Fluoro-5-(1-{6-methyl-4-[(1-methylcyclopropyl)amino]furo[2,3-d]pyrimidine-5-carbonyl}-1,2,3,6-tetrahydropyridin-4-yl)pyridine-2-carbonitrile]		>8
COc1ncc(C2=CCN(C(=O)c3c(C)oc4ncnc(NC5(C)CC5)c34)CC2)cc1F [Example 13, 5-[4-(5-Fluoro-6-methoxypyridin-3-yl)-1,2,3,6-tetrahydropyridine-1-carbonyl]-6-methyl-N-(1-methylcyclopropyl)furo[2,3-d]pyrimidin-4-amine]		>8
COc1ncc(C2CCN(C(=O)c3c(C)oc4ncnc(NC5(C)CC5)c34)CC2)cc1F [Example 14, 5-[4-(5-Fluoro-6-methoxypyridin-3-yl)piperidine-1-carbonyl]-6-methyl-N-(1-methylcyclopropyl)furo[2,3-d]pyrimidin-4-amine]		>8
Cc1oc2ncnc(NC3(C)CC3)c2c1C(=O)N1CC=C(c2ncc(F)cn2)CC1 [Example 15, 5-[4-(5-Fluoropyrimidin-2-yl)-1,2,3,6-tetrahydropyridine-1-carbonyl]-6-methyl-N-(1-methylcyclopropyl)furo[2,3-d]pyrimidin-4-amine]	10 to 100	
Cc1oc2ncnc(NC3(C)CC3)c2c1C(=O)N1CCc2c(ncn(CF)c2=O)C1 [Example 16, 3-(Fluoromethyl)-7-{6-methyl-4-[(1-methylcyclopropyl)amino]furo[2,3-d]pyrimidine-5-carbonyl}-3H,4H,5H,6H,7H,8H-pyrido[3,4-d]pyrimidin-4-one]	10 to 100	
Cc1oc2ncnc(NC3(C)CC3)c2c1C(=O)N1CCc2c(ncnc2OCF)C1 [Example 17, 5-[4-(fluoromethoxy)-5H,6H,7H,8H-pyrido[3,4-d]pyrimidine-7-carbonyl]-6-methyl-N-(1-methylcyclopropyl)furo[2,3-d]pyrimidin-4-amine]	10 to 100	
Cc1oc2ncnc(NC3(C)CC3)c2c1C(=O)N1CCc2c(ncnc2N2CC[C@@H](F)C2)C1 [Example 18, 5-{4-[(3R)-3-Fluoropyrrolidin-1-yl]-5H,6H,7H,8H-pyrido[3,4-d]pyrimidine-7-carbonyl}-6-methyl-N-(1-methylcyclopropyl)furo[2,3-d]pyrimidin-4-amine]	10 to 100	
Cc1oc2ncnc(NC3(C)CC3)c2c1C(=O)N1CCc2c(O)ccnc2C1 [Example 19, 7-{6-methyl-4-[(1-methylcyclopropyl)amino]furo[2,3-d]pyrimidine-5-carbonyl}-5,6,7,8-tetrahydro-1,7-naphthyridin-4-ol]	100 to 1000	
Cc1oc2ncnc(NC3(C)CC3)c2c1C(=O)N1CCc2c(OCCF)ccnc2C1 [Example 20, 5-[4-(2-Fluoroethoxy)-5,6,7,8-tetrahydro-1,7-naphthyridine-7-carbonyl]-6-methyl-N-(1-methylcyclopropyl)furo[2,3-d]pyrimidin-4-amine trifluoroacetate]		>8
